Measurements: patent US10670616B2, “Microchip for assay of blood properties, and device for assay of blood properties” (FUJIMORI KOGYO CO., LTD., priority 2014, dated 2020)

Tests used:
[1] = system: thrombus formation in blood; experiment: Microchip pressure analysis, second channel, collagen + 0.2 mg/ml tissue thromboplastin, 24 μl/min (Examples 9, 10); assay type: cell-based; conditions: for areas under pressure, second channel: 24 μL/min
Experimental: (§1) The same microchip as in Examples 1 to 3 was used, except that, in the second substrate 1b, a solution prepared by mixing 3 mg/ml collagen and 0.4 mg/ml tissue thromboplastin solution at a ratio of 1:1 and a solution prepared by mixing 3 mg/ml collagen and 0.2 mg/ml tissue thromboplastin solution at a ratio of 1:1 were applied to the positions corresponding to the first reaction section 102 and the second reaction section 112, respectively, such that each applied area has a size of 6 mm×6 mm. The microchip prepared was used in the following experiment.
(§2) Blood was collected using a blood collection tube containing 3.2% sodium citrate, manufactured by Terumo Corporation. To the collected blood, 50 μg/ml (final concentration) CTI and 12 mM (final concentration) calcium chloride were added, and the resulting blood was used for perfusion of the first channel at a flow rate of 8 μl/min. and the second channel at a flow rate of 24 μl/min. for 10 minutes while pressure analysis was carried out.
(§3) The same experiment as in Example 9 was carried out except that blood prepared by 2-fold dilution with physiological saline (Otsuka Pharmaceutical Co., Ltd.), blood prepared by 2-fold dilution with physiological saline+addition of 0.5 U/ml vWF (CSL-Behring), blood prepared by 2-fold dilution+addition of 0.5 U/ml PCC (CSL-Behring), blood prepared by addition of 1 U/ml heparin, or blood prepared by addition of 2 μg/ml abciximab, was used.

[2] = system: thrombus formation in blood; experiment: Microchip pressure analysis, second channel, collagen + tissue thromboplastin, 24 μl/min (Example 4); assay type: cell-based; conditions: for integrated values of the pressures measured for 10 minutes, second channel: 24 μL/min
Experimental: (§4) A microchip having the same shape as in Examples 1 to 3 was prepared, and, in the second substrate 1b, a solution prepared by mixing 3 mg/ml collagen solution and 0.4 mg/ml tissue thromboplastin solution at a ratio of 1:1 was applied to the positions corresponding to the first reaction section 102 and the second reaction section 112 such that each applied area has a size of 6 mm×6 mm. The microchip prepared was used in the following experiment.
(§5) Blood was collected using a blood collection tube containing 3.2% sodium citrate, manufactured by Terumo Corporation. To the collected blood, 50 μg/ml (final concentration) CTI and 12 mM (final concentration) calcium chloride were added, and the resulting blood was used for perfusion of the first channel at a flow rate of 8 μl/min. (initial wall shear rate, about 660 s^−1) and the second channel at a flow rate of 24 μl/min. (initial wall shear rate, about 2000 s^−1) for 10 minutes while pressure analysis was carried out.
(§6) The same experiment as in Example 4-1 was carried out using (1) blood prepared by 2-fold dilution of the citrate blood with physiological saline; (2) blood prepared by adding a 0.5 U vWF (von Willebrand factor) formulation (CSL-Behring) to the 2-fold diluted blood of (1); (3) blood prepared by adding a 0.5 U PCC formulation (CSL-Behring) to the 2-fold diluted blood of (1); (4) blood prepared by adding 1 U heparin; or (5) blood prepared by adding 3 μg/ml Abciximab (Eli Lilly).
(§7) The integrated values of the pressures measured for 10 minutes, and the ratios between the first channel and the second channel are shown in the following Table 1.

[3] = system: thrombus formation in blood; experiment: Microchip pressure analysis, first channel, collagen + 0.4 mg/ml tissue thromboplastin, 8 μl/min (Examples 9, 10); assay type: cell-based; conditions: for areas under pressure, first channel: 8 μL/min
Experimental: as §1, §2, §3

[4] = system: thrombus formation in blood; experiment: Microchip pressure analysis, first channel, collagen + tissue thromboplastin, 8 μl/min (Example 4); assay type: cell-based; conditions: for integrated values of the pressures measured for 10 minutes, first channel: 8 μL/min
Experimental: as §4, §5, §6, §7

blood coagulation [5] = experiment: ROTEM analysis of blood coagulation in the absence of blood flow (Comparative Example 1); assay type: cell-based; conditions: 12 mM calcium chloride, 50 μg/ml CTI and 1 μg/ml Arixtra
Experimental: Blood was collected using a blood collection tube containing 3.2% sodium citrate, manufactured by Terumo Corporation. To the collected blood, 12 mM calcium chloride; 12 mM calcium chloride and 50 μg/ml CTI; or 12 mM calcium chloride, 50 μg/ml CTI, and 1 μg/ml Arixtra (synthetic pentasaccharide, GlaxoSmithKline K.K.); was/were added, and each resulting blood was analyzed by ROTEM (Tem International GmbH).

blood coagulation [6] = experiment: ROTEM analysis of canine blood coagulation in the absence of blood flow (Comparative Example 2); assay type: cell-based; conditions: 0.5 U/ml with 50 μg/ml CTI and 12 mM calcium chloride
Experimental: Canine blood was anticoagulated with 3.2% sodium citrate. Subsequently, 12 mM calcium chloride; 50 μg/ml (final concentration) CTI and 12 mM (final concentration) calcium chloride; or 0.5 U/ml (final concentration) danaparoid sodium, 50 μg/ml CTI, and 12 mM (final concentration) calcium chloride; was/were added to the blood, and blood coagulation in the absence of blood flow was analyzed by ROTEM (Tem International GmbH).

[7] = system: white thrombi in the presence of blood flow; experiment: Microchip pressure analysis with canine blood (Examples 5, 6); assay type: cell-based; conditions: 0.5 U danaparoid sodium, 24 and 8 μl/min, 10 minutes
Experimental: Canine blood was anticoagulated with 3.2% sodium citrate. Subsequently, 50 μg/ml (final concentration) CTI and 12 mM (final concentration) calcium chloride were added to the blood, and the resulting blood was used for perfusion of the first channel at a flow rate of 24 μl/min. and the second channel at a flow rate of 8 μl/min. for 10 minutes while pressure analysis was carried out.
An experiment was carried out in the same manner as in Example 5 except that 0.5 U danaparoid sodium was added to the dog sodium citrate blood.

[8] = system: thrombus formation (fibrin and platelets) in blood; experiment: Microchip pressure analysis, first channel coated with collagen and tissue thromboplastin, recalcified citrate blood + CTI (Examples 1, 2); assay type: cell-based, human
Experimental: (§8) Two transparent substrates, that is, the first substrate 1a shown in FIG. 1(A) and the second substrate 1b shown in FIG. 1(B) (injection-molded products manufactured by Richell Corporation), were prepared. In the first substrate 1a, each of the channels 101 and 111 has a length of 20 mm, depth of 40 μm, and width of 2 mm, and each of the waste liquid storage sections has a length of 30 mm, depth of 1.3 mm, and width of 8.5 mm.
(§9) In the substrate 1a, 25 dividing walls each having a height of 40 μm, width of 40 μm, and length of 1.5 mm were arranged at equal intervals at positions corresponding to the first reaction section and the second reaction section of the first channel and the second channel, to provide channel dividing walls 109 and 119, respectively.
(§10) In the second substrate 1b, the holes corresponding to the inlets 104 and 114 were provided as penetrating holes each having an inner diameter of 2 mm and a circular cross-sectional shape. On the other hand, the holes corresponding to the air holes 105 and 115 were provided as penetrating holes each having an inner diameter of 1 mm and a circular cross-sectional shape. […]
(§11) Pumps 107 and 117 were connected to the reservoirs 106 and 116 through tubes, and the pressures applied to the pumps were measured using pressure sensors 108 and 118.

[9] = system: platelet-specific thrombus formation in blood; experiment: Microchip pressure analysis, second channel coated with only collagen, hirudin-treated blood (Examples 1, 2); assay type: cell-based, human
Experimental: as §8, §9, §10, §11

[10] = undiluted blood, 1 U/ml heparin or 2 μg/ml abciximab, cont 438.2
[11] = undiluted blood, heparin 1 U/ml or abciximab 3 μg/ml, control 482
[12] = undiluted blood, 1 U/ml heparin or 2 μg/ml abciximab, cont 393.8
[13] = undiluted blood, heparin 1 U/ml or abciximab 3 μg/ml, control 409.3

## vWF: vWF (von Willebrand factor) formulation (CSL-Behring)
[1]; 50% dilution with physiological saline + 0.5 U/ml factor, 50% dil alone 110.2
  areas under pressure, second channel: 282.8
[2]; 50% dilution of citrate blood with physiological saline + 0.5 U/ml factor, 50% dilution alone 248.2
  integrated values of the pressures measured for 10 minutes, second channel: 381.1
[2]; Example 4-2, 24 μl/min
  thrombi in the second channel: remarkable recovery of thrombi in the second channel
[3]; 50% dilution with physiological saline + 0.5 U/ml factor, 50% dil alone 195.8
  areas under pressure, first channel: 297.9
[4]; 50% dilution of citrate blood with physiological saline + 0.5 U/ml factor, 50% dilution alone 203.9
  integrated values of the pressures measured for 10 minutes, first channel: 171.2

## CO[C@H]1O[C@H](COS(=O)(=O)O)[C@@H](O[C@@H]2O[C@@H](C(=O)O)[C@@H](O[C@H]3O[C@H](COS(=O)(=O)O)[C@@H](O[C@@H]4O[C@H](C(=O)O)[C@@H](O[C@H]5O[C@H](COS(=O)(=O)O)[C@@H](O)[C@H](O)[C@H]5NS(=O)(=O)O)[C@H](O)[C@H]4O)[C@H](OS(=O)(=O)O)[C@H]3NS(=O)(=O)O)[C@H](O)[C@H]2OS(=O)(=O)O)[C@H](O)[C@H]1NS(=O)(=O)O [Arixtra]
Blood coagulation [5]
  blood coagulation in the absence of blood flow: strongly suppresses blood coagulation
[4]; Example 4-1 conditions, further addition of 0.5 μg/ml to the blood
  change in the pressure waveform: no remarkable change in the pressure waveform

## heparin [reference compound]
[1]; [10]
  areas under pressure, second channel: 198
[2]; [11]
  integrated values of the pressures measured for 10 minutes, second channel: 328.4
[3]; [12]
  areas under pressure, first channel: 12
[3]; Examples 9 and 10
  thrombus formation in the first channel: more strongly suppressed thrombus formation in the first channel
[4]; [13]
  integrated values of the pressures measured for 10 minutes, first channel: 127.3

## danaparoid sodium
Blood coagulation [6]
  blood coagulation in the absence of blood flow: remarkable delay of blood coagulation
[7]
  white thrombi in the presence of blood flow: hardly suppresses white thrombi

B1: abciximab (antibody, chains of the INN, looked up, V domains shown)
VH: EVQLQQSGTVLARPGASVKMSCEASGYTFTNYWMHWVKQRPGQGLEWIGAIYPGNSDTSYIQKFKGKAKLTAVTSTTSVYMELSSLTNEDSAVYYCTLYDGYYVFAYWGQGTLVTVSA
VL: EIVLTQSPVTLSVTPGDSVSLSCRASRDISNNLHWFQQTSHESPRLLIKYASQSMSGIPSRFSGSGSGTDFTLSINSVETEDFGMYFCQQTNSWPYTFGGGTKLEIK
modifications: Fab
[1]; [10]
  areas under pressure, second channel: 6
[1]; Examples 9 and 10
  thrombus formation in the second channel: more strongly suppressed thrombus formation in the second channel
[8]; Examples 1 and 2
  thrombus formation in the first channel: suppressed
[8]; citrate blood + 12 mM calcium chloride + 50 μg/ml CTI, 18 μl/min, 10 minutes, 10 mM aspirin + 100 μM AR-C66096, 3 μg/ml abciximab or 200 nM OS-1, control 457
  integrated values of the areas below 60 kPa, first channel: 27.0
[2]; [11]
  integrated values of the pressures measured for 10 minutes, second channel: 20.5
[3]; [12]
  areas under pressure, first channel: 258
[9]; Examples 1 and 2
  thrombus formation in the second channel: suppressed
[9]; hirudin blood, 18 μl/min, 10 minutes, 10 mM aspirin + 100 μM AR-C66096, 3 μg/ml abciximab or 200 nM OS-1, control 372
  integrated values of the areas below 60 kPa, second channel: 5.4
[4]; [13]
  integrated values of the pressures measured for 10 minutes, first channel: 394.8
